Data taken from ChEMBL document CHEMBL1201862, “PubChem BioAssay data set” (2004).
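96-well plates; 48 h exposure; 5 concentrations. Endpoints by linear interpolation between flanking doses. Not reached: highest tested concentration assigned. GI50 is the concentration that inhibits growth by half.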 The source made the active and inactive calls. Rule as the data show it: active = GI50 up to about 1.1 µM and inactive = higher.

Key:
Test in all cases: inhibition of tumour cell growth, NCI panel, 48 h
786-0 = test system: 786-0
A498 = test system: A498
A549 = test system: A549
ACHN = test system: ACHN
BT-549 = test system: BT-549
CAKI-1 = test system: CAKI-1
CCRF-CEM = test system: CCRF-CEM
EKVX = test system: EKVX
HCC 2998 = test system: HCC 2998
HCT-116 = test system: HCT-116
HCT-15 = test system: HCT-15
HL-60 = test system: HL-60
HOP-62 = test system: HOP-62
HOP-92 = test system: HOP-92
HT-29 = test system: HT-29
Hs-578T = test system: Hs-578T
IGROV-1 = test system: IGROV-1
K562 = test system: K562
KM12 = test system: KM12
LOX IMVI = test system: LOX IMVI
M14 = test system: M14
MCF7 = test system: MCF7
MDA-MB-231 = test system: MDA-MB-231
MDA-MB-435 = test system: MDA-MB-435
MDA-N = test system: MDA-N
MOLT-4 = test system: MOLT-4
NCI-H226 = test system: NCI-H226
NCI-H23 = test system: NCI-H23
NCI-H460 = test system: NCI-H460
NCI-H522 = test system: NCI-H522
NCI/ADR-RES = test system: NCI/ADR-RES
OVCAR-3 = test system: OVCAR-3
OVCAR-4 = test system: OVCAR-4
OVCAR-5 = test system: OVCAR-5
OVCAR-8 = test system: OVCAR-8
PC-3 = test system: PC-3
RPMI-8226 = test system: RPMI-8226
RXF 393 = test system: RXF 393
SF-268 = test system: SF-268
SF-295 = test system: SF-295
SF-539 = test system: SF-539
SK-MEL-28 = test system: SK-MEL-28
SK-MEL-2 = test system: SK-MEL-2
SK-MEL-5 = test system: SK-MEL-5
SK-OV-3 = test system: SK-OV-3
SN12C = test system: SN12C
SNB-19 = test system: SNB-19
SNB-75 = test system: SNB-75
SR = test system: SR
SW-620 = test system: SW-620
T47D = test system: T47D
TK-10 = test system: TK-10
U-251 = test system: U-251
UACC-257 = test system: UACC-257
UACC-62 = test system: UACC-62
UO-31 = test system: UO-31

Measured: GI50

COC(=O)C(/C(=N/N)C(=O)Nc1cccc(O)c1)c1nc2ccccc2nc1O (stereo unspecified)
> 100 µM: HCT-15
inactive: 786-0 > 100 µM | A498 > 100 µM | A549 > 100 µM | ACHN > 100 µM | BT-549 > 100 µM | CAKI-1 > 100 µM | CCRF-CEM > 10 µM | EKVX > 100 µM | HCC 2998 > 100 µM | HCT-116 > 100 µM | HL-60 > 100 µM | HOP-62 > 100 µM | HOP-92 > 100 µM | HT-29 > 100 µM | Hs-578T > 100 µM | IGROV-1 > 100 µM | K562 > 100 µM | KM12 > 100 µM | LOX IMVI > 100 µM | M14 > 100 µM | MCF7 > 100 µM | MDA-MB-231 > 100 µM | MDA-MB-435 > 100 µM | MDA-N > 100 µM | MOLT-4 > 100 µM | NCI-H226 > 100 µM | NCI-H23 > 100 µM | NCI-H460 > 100 µM | NCI-H522 > 100 µM | NCI/ADR-RES > 100 µM | OVCAR-3 > 100 µM | OVCAR-4 > 100 µM | OVCAR-5 > 100 µM | OVCAR-8 > 100 µM | PC-3 > 100 µM | RPMI-8226 > 10 µM | RXF 393 > 100 µM | SF-268 > 100 µM | SF-295 > 100 µM | SF-539 > 100 µM | SK-MEL-28 > 100 µM | SK-MEL-2 > 100 µM | SK-MEL-5 > 100 µM | SK-OV-3 > 100 µM | SN12C > 100 µM | SNB-19 > 100 µM | SNB-75 > 100 µM | SR > 100 µM | SW-620 > 100 µM | T47D > 100 µM | TK-10 > 100 µM | U-251 > 100 µM | UACC-257 > 100 µM | UACC-62 > 100 µM | UO-31 > 100 µM
